Measured values as given in patent publication EP1198477B1, “PROLACTIN-RELEASING PEPTIDE AND USE IN TREATING PAIN” (Oy Juvantia Pharma Ltd, priority 1999, dated 2001).

System: Rats
Test: Blood pressure measurements after i.v. injections
Type: in vivo
Conditions: in the same animals, dose not stated

How did the arterial pressure turn out when `CNC[C@H](O)c1cccc(O)c1` [phenylephrine] was run?
Its arterial pressure is “clear increase in pressure”.
